Data as given in US6414024B1, “GABA and L-glutamic acid analogs for antiseizure treatment” (Northwestern University, priority 1990, dated 2002).
Where two headings read alike, the source gives them in different places.

Tests used:
Gabapentin Receptor = target: T1, Gabapentin Receptor (Rattus norvegicus, UniProt P54290); test: Gabapentin receptor binding, displacement of [3H]-gabapentin
T1 construct: partially purified synaptic plasma membranes were prepared from rat neocortex; from tissue; host or cells: rat neocortex synaptic plasma membranes
T1 sequence (P54290 25-1091): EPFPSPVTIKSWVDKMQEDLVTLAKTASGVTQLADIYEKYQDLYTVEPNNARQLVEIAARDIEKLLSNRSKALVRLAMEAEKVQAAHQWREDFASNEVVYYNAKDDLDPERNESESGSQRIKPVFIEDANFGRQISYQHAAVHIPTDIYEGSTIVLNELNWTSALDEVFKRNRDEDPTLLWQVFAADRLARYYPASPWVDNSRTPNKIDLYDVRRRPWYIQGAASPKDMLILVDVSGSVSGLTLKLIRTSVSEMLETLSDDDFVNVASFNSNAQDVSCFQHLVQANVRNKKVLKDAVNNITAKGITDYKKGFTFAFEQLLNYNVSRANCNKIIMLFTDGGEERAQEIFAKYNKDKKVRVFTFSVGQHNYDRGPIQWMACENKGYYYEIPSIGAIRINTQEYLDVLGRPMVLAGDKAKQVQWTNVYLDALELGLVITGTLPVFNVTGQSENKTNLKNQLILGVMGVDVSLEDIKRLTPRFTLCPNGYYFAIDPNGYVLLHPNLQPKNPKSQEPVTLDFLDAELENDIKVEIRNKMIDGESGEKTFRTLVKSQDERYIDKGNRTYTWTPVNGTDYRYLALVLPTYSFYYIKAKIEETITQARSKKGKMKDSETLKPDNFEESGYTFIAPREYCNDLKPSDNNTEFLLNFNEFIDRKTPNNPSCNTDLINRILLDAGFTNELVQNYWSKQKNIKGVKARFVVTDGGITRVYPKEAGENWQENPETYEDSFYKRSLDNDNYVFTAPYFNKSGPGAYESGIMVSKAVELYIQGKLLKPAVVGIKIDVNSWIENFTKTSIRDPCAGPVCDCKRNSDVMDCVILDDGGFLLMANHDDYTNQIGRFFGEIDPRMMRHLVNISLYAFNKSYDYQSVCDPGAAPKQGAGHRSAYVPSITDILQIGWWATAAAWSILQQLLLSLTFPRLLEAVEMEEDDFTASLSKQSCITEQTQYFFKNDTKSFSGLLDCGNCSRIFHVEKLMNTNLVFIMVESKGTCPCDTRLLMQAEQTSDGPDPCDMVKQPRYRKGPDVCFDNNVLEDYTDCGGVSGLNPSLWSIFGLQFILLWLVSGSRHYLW
Protocol: For binding studies, partially purified synaptic plasma membranes were prepared from rat neocortex using sucrose density gradients. The cerebral cortex of 10 rats was dissected from the rest of the brain and homogenized in 10 volumes (weight/volume) of ice-cold 0.32 M sucrose in 5 mM tris-acetate (pH 7.4) using a glass homogenizer fitted with a teflon pestle (10-15 strokes at 200 rpm). The homogenate was centrifuged at 100 g for 10 minutes and the supernatant collected and kept on ice. The pellet (PI) was rehomogenized in 20 mL of tris-sucrose and the homogenate recentrifuged. The combined supernatants were centrifuged at 21,500 g for 20 minutes. The pellet (P2) was resuspended in 1.2 M tris-sucrose and 15 mL of this mixture was added to ultracentrifuge tubes. On to this, 10 mL of 0.9 M sucrose was layered followed by a final layer of 5 mM tris-acetate, pH 8.0. Tubes were centrifuged at 100,000 g for 90 minutes. The synaptic plasma membranes located at the 0.9/1.2 M sucrose interface. were collected, resuspended in 50 mL of 5 mM tris-acetate, pH 7.4, and centrifuged at 48,000 g. The final pellet was resuspended in 50 mL of tris-acetate, pH 7.4, aliquoted, and then frozen until use.
The assay tissue (0.1 to 0.3 mg protein) was incubated with […] [^3H]-gabapentin in 10 mM HEPES buffer (pH 7.4 at 20° C., sodium free) in the presence of varying concentrations of test compound for 30 minutes at room temperature, before filtering onto GFB filters under vacuum. Filters were washed 3 times with 5 mL of ice cold 100 mM NaCl solution and dpm bound to filters was determined using liquid scintillation counting. Nonspecific binding was defined by that observed in the presence of […] gabapentin.

[1] = test system: tonic hindlimb extensor seizures in mice; test: Threshold maximal (low-intensity) electroshock, tonic extensor seizures; assay type: in vivo; settings: for ED50: IV, mouse, 17 mA
Protocol: Threshold maximum electroshock is an animal model test for generalized seizures that is similar to that of Piredda S G, et al, Pharmacol. and Exptl. Therap. […] The methods for this test are described as follows.
Male CF-1 mice (22-30 g) were allowed free access to food and water prior to testing. For screening, groups of five mice were given a compound intravenously at doses of 30, 100, and 300 mg/kg and tested at 0.5, 2.0, and 4.0 hours after dosing. Drugs were either dissolved in 0.9% saline or suspended in 0.2% methylcellulose. Animals were shocked with corneal electrodes (see below) and observed for tonic hindlimb extensor seizures. Absence of hindlimb extension was taken as an anticonvulsant effect.
The electroshock apparatus delivered a 60 Hz sine wave with a current amplitude of 14 mA (peak-to-peak) for 0.2 seconds.
(§1) For anticonvulsant testing, male CF-1 strain mice (20-25 g) and male Sprague-Dawley rats (75-115 g) were obtained from Charles River Laboratories and were maintained with free access to food and water before testing. […] Briefly, mice were given test substance and were tested for prevention of seizures by application of electrical current to the corneas by 2 metal electrodes covered with gauze and saturated with 0.9% sodium chloride. Electroshock stimulation was delivered by a constant-current device that produced 60 Hz sinusoidal electrical current for 0.2 seconds. For rats, maximal electroshock stimulation consisted of 120 mA of current. […] Any mouse that fell from the wire mesh during a 60 second test period was rated as ataxic.

[2] = Ataxia in mice (inverted screen procedure); settings: male, CF-1, in vivo, mouse
Protocol: as §1

[3] = test system: maximal electroshock seizures in mice; test: Maximal electroshock in mice; assay type: in vivo; settings: mouse
From the text: For anticonvulsant testing, male CF-1 strain mice (20-25 g) and male Sprague-Dawley rats (75-115 g) were obtained from Charles River Laboratories and were maintained with free access to food and water before testing. Maximal electroshock was delivered with corneal electrodes by conventional methods (Krall, supra, 1975) except that low-intensity electroshock with mice consisted of 17 mA of current rather than the conventional 50 mA (zero to peak). Briefly, mice were given test substance and were tested for prevention of seizures by application of electrical current to the corneas by 2 metal electrodes covered with gauze and saturated with 0.9% sodium chloride. Electroshock stimulation was delivered by a constant-current device that produced 60 Hz sinusoidal electrical current for 0.2 seconds. For rats, maximal electroshock stimulation consisted of 120 mA of current. Ataxia in mice was assessed by the inverted screen procedure in which mice were individually placed on a 4.0-inch square of wire mesh that was subsequently inverted (Coughenour, supra, 1978). Any mouse that fell from the wire mesh during a 60 second test period was rated as ataxic.
All drugs were freely soluble in aqueous media. For in vivo studies, drug solutions were made in 0.9% sodium chloride and given in a volume of 1 mL/100 g body weight. Intravenous administration was given by bolus injection into the retro-orbital sinus in mice. Oral administrations were by intragastric gavage.

[4] = IV, read-out: IV Mouse Ataxia (ED50)
[5] = IV, read-out: IV Mouse Maximal Electroshock (ED50)
[6] = PO, read-out: PO Mouse Maximal Electroshock (ED50)

| Compound | IC50 (Gabapentin Receptor) [nM] | ED50 [1] [mg/kg] | time of maximum protection, threshold maximal electroshock ([1]; mice, 10 mg/kg intravenously, tested 1 hour to 8 hours) [h] | # Protected, threshold maximal electroshock ([1]; mice, 10 mg/kg intravenously, time of testing 1 hr.) | # Protected, threshold maximal electroshock ([1]; mice, 10 mg/kg intravenously, time of testing 2 hr.) | # Protected, threshold maximal electroshock ([1]; mice, 10 mg/kg intravenously, time of testing 4 hr.) | # Protected, threshold maximal electroshock ([1]; mice, 10 mg/kg intravenously, time of testing 8 hr.) | calculated EDSO, threshold maximal electroshock dose response ([1]; mice, intravenously, two hour testing time) [mg/kg] | ED50 [2, 4] [mg/kg] | ED50 [3, 5] [mg/kg] | ED50 [3, 6] [mg/kg] | ED50 ([2]; (IP), read-out: Mouse Ataxia (ED50)) [mg/kg] |
| --- | --- | --- | --- | --- | --- | --- | --- | --- | --- | --- | --- | --- |
| CC(C)CC(CN)CC(=O)O (racemic) [(R,S)-i-C4H9, H, 4-amino-3-(2-methylpropyl)butanoic acid] | 100 | 4.8 | 2 | 2/10 | 8/10 | 4/10 | 2/10 | 2.07 | > 100 | 10 | 47 | – |
| CC(C)C[C@@H](CN)CC(=O)O [(R)-IBG, (R)(−)-4-amino-3-(2-methylpropyl)butanoic acid] | 860 | > 100 | – | – | – | – | – | – | > 100 | > 100 | – | – |
| CC(C)C[C@H](CN)CC(=O)O [(S)-IBG, (S)-(+)-4-Amino-3-(2-methylpropyl)butanoic Acid] | 44 | 4 | – | – | – | – | – | – | > 300 | 18 | 12 | – |
| NCC1(CC(=O)O)CCCCC1 [Gabapentin, gabapentin, reference compound] | – | 4.3 | – | – | – | – | – | – | – | 75 | 200 | > 100 |
